In patent publication US20250170114A1, “METHODS OF TREATMENT USING T-TYPE CALCIUM CHANNEL MODULATORS” (Praxis Precision Medicines, Inc., priority 2022, published 2025):

System: participants with ET
Test: Phase 2 trial: treatment-emergent adverse events (TEAEs)
Type: in vivo
Excerpt: Part A of the clinical trial was open-label and assessed the safety and tolerability of the study drug, as well as the overall magnitude and pattern of change in ET severity.
Part B of the clinical trial consisted of both an open-label titration phase and a randomized, double-blind, placebo-controlled withdrawal phase. Part B assessed the safety and tolerability of the study drug, as well as the overall magnitude and pattern of change in ET severity and the duration of that effect. […] In the randomized, double-blind, placebo-controlled withdrawal phase, participants were either maintained on their final open-label dose or switched to placebo for an additional 14 days (Days 43 to 56).
Key safety measures included clinical laboratory evaluations, 12-lead ECG, C-SSRS, and vital signs. Key efficacy assessments included the TETRAS Performance subscale, TETRAS Upper Limb using accelerometry, CGI, and PGI-C. Blood samples were obtained for the determination of study drug plasma concentrations using a validated bioanalytical method and may also be used for method development and/or metabolite characterization.
On Day 1, participants received a 20 mg dose of study drug on an empty stomach (at least 1 hour before breakfast). Participants remained in a clinical setting under medical observation for approximately 6 hours. TETRAS Performance assessments were performed before dosing and 6 hours (±2) post-dose. For dosing on Day 2 through Day 41, participants were instructed to dose QAM at least 1 hour before breakfast at home. Participants continued taking study drug 20 mg QAM at home through Day 3. […] On Day 4, participants escalated to 40 mg QAM through Day 7, when they returned to the clinic for safety assessments and efficacy testing. On Day 8, participants escalated to 60 mg QAM through Day 14. […] On Day 15, participants escalated to 80 mg QAM through Day 21, when they returned to the clinic for safety assessments and efficacy testing. On Day 22, participants escalated to 100 mg QAM through Day 28. […] On Day 29, participants escalated to 120 mg QAM through Day 42, when they returned to the clinic for safety assessments and efficacy testing. The dose on Day 42 was taken in the clinic. On Day 35, participants received a telephone call from site staff to inquire about AEs and concomitant medications. On Day 41, participants completed a TETRAS Performance Upper Limb assessment via a telehealth visit. […] Participants could only change to a lower dose level once, and no dose changes were allowed to occur after Day 36.
In both phases, key safety measures included clinical laboratory evaluations, 12-lead ECG, C-SSRS, and vital signs. Key efficacy assessments included the TETRAS Performance subscale, TETRAS Upper Limb using accelerometry, CGI, PGI-C, TETRAS ADL Subscale, QUEST, BDI-II, and BAI. Blood samples were obtained for the determination of study drug and metabolite plasma concentrations.

[1] = Part A, Overall, N = 7, listed as study drug
[2] = Part B - RWD, study drug group, N = 6

Question: With `CC(C)(C)NC(=O)CN1CCC(CNC(=O)c2cc(F)cc(Cl)c2)CC1.Cl` [Study drug] as the compound, how does the “Drug-related TEAE dizziness” value (Part A) read?
Answer: Its value is 3 participants.

Question: What about the “participants experiencing TEAEs considered related to study drug” value (Part A) of the same compound?
Answer: Its value is 57.1%.

Question: And the “participants who experienced at least 1 TEAE” value (Part A)?
Answer: The value was 85.7%.

Question: And the “Any TEAE” value (Part A (overall), N = 7)?
Answer: The value was 6 (85.7) n (%).

Question: What about the “Any TEAE leading to study drug withdrawal” value (“Any TEAE leading” below) (Part A (overall), N = 7) of the same compound?
Answer: Its value is 1 (14.3) n (%).

Question: What about the “Any TEAE related to disease under study” value (Part A (overall), N = 7) of the same compound?
Answer: The value was 1 (14.3) n (%).

Question: What about the “Any TEAE related to study drug” value (Part A (overall), N = 7) of the same compound?
Answer: The value was 4 (57.1) n (%).

Question: What about the “Any TEAE related to study procedure” value (Part A (overall), N = 7) of the same compound?
Answer: The value was 0 n (%).

Question: And the “Any fatal SAEs” value (Part A (overall), N = 7)?
Answer: The value was 0 n (%).

Question: And the “Any serious adverse events” value (Part A (overall), N = 7)?
Answer: Its value is 0 n (%).

Question: And the “TEAE Mild” value (Part A (overall), N = 7)?
Answer: Its value is 6 (85.7) n (%).

Question: What about the “TEAE Moderate” value (Part A (overall), N = 7) of the same compound?
Answer: Its value is 1 (14.3) n (%).

Question: What about the “TEAE Severe” value (Part A (overall), N = 7) of the same compound?
Answer: The value was 0 n (%).

Question: What about the “participants who experienced AEs leading to study drug withdrawal” value (Part A and open-label titration phase of Part B together) of the same compound?
Answer: Its value is 7 participants.

Question: And the “Any TEAE” value (Part A, 20 mg, N = 7)?
Answer: The value was 6 (85.7) n (%).

Question: What about the “TEAE PT Dizziness” value (Part A, 20 mg, N = 7) of the same compound?
Answer: The value was 4 (57.1) n (%).

Question: What about the “TEAE PT Headache” value (Part A, 20 mg, N = 7) of the same compound?
Answer: Its value is 3 (42.9) n (%).

Question: And the “TEAE SOC Nervous System Disorders” value (Part A, 20 mg, N = 7)?
Answer: The value was 6 (85.7) n (%).

Question: And the “TEAE SOC Psychiatric Disorders” value (Part A, 20 mg, N = 7)?
Answer: Its value is 2 (28.6) n (%).

Question: What about the “Any TEAE” value (Part A, 40 mg, N = 6) of the same compound?
Answer: Its value is 2 (33.3) n (%).

Question: And the “TEAE PT Dizziness” value (Part A, 40 mg, N = 6)?
Answer: The value was 0 n (%).

Question: What about the “TEAE PT Headache” value (Part A, 40 mg, N = 6) of the same compound?
Answer: Its value is 1 (16.7) n (%).

Question: And the “TEAE SOC Nervous System Disorders” value (Part A, 40 mg, N = 6)?
Answer: Its value is 1 (16.7) n (%).

Question: What about the “TEAE SOC Psychiatric Disorders” value (Part A, 40 mg, N = 6) of the same compound?
Answer: The value was 0 n (%).

Question: And the “Any TEAE” value (Part A, Overall, N = 7)?
Answer: The value was 6 (85.7) n (%).

Question: What about the “TEAE PT Dizziness” value (Part A, Overall, N = 7) of the same compound?
Answer: The value was 4 (57.1) n (%).

Question: What about the “TEAE PT Headache” value (Part A, Overall, N = 7) of the same compound?
Answer: The value was 3 (42.9) n (%).

Question: And the “TEAE SOC Nervous System Disorders” value (Part A, Overall, N = 7)?
Answer: Its value is 6 (85.6) n (%).

Question: What about the “TEAE SOC Psychiatric Disorders” value (Part A, Overall, N = 7) of the same compound?
Answer: The value was 2 (28.6) n (%).

Question: What about the “Any TEAE leading” value [1] of the same compound?
Answer: Its value is 1 n (%).

Question: And the “TEAE PT Dizziness” value [1]?
Answer: Its value is 4 n (%).

Question: And the “TEAE PT Headache” value [1]?
Answer: Its value is 3 n (%).

Question: What about the “Any TEAE” value (Part B - OLT, N = 17) of the same compound?
Answer: The value was 15 n (%).

Question: What about the “Any TEAE leading” value (Part B - OLT, N = 17) of the same compound?
Answer: The value was 6 n (%).

Question: And the “Any TEAE related to disease under study” value (Part B - OLT, N = 17)?
Answer: Its value is 1 n (%).

Question: What about the “Any TEAE related to study drug” value (Part B - OLT, N = 17) of the same compound?
Answer: The value was 12 n (%).

Question: And the “Any TEAE related to study procedure” value (Part B - OLT, N = 17)?
Answer: Its value is 0 n (%).

Question: What about the “Any fatal SAEs” value (Part B - OLT, N = 17) of the same compound?
Answer: The value was 0 n (%).

Question: And the “Any serious adverse events” value (Part B - OLT, N = 17)?
Answer: The value was 1 n (%).

Question: And the “TEAE Mild” value (Part B - OLT, N = 17)?
Answer: The value was 13 n (%).

Question: What about the “TEAE Moderate” value (Part B - OLT, N = 17) of the same compound?
Answer: Its value is 7 n (%).

Question: And the “TEAE Severe” value (Part B - OLT, N = 17)?
Answer: The value was 0 n (%).

Question: What about the “Any TEAE” value [2] of the same compound?
Answer: The value was 1 (16.7) n (%).

Question: What about the “Any TEAE leading” value [2] of the same compound?
Answer: Its value is 0 n (%).

Question: What about the “Any TEAE related to disease under study” value [2] of the same compound?
Answer: Its value is 0 n (%).

Question: What about the “Any TEAE related to study drug” value [2] of the same compound?
Answer: Its value is 0 n (%).

Question: And the “Any TEAE related to study procedure” value [2]?
Answer: The value was 0 n (%).

Question: What about the “Any fatal SAEs” value [2] of the same compound?
Answer: Its value is 0 n (%).

Question: And the “Any serious adverse events” value [2]?
Answer: Its value is 0 n (%).

Question: And the “TEAE Mild” value [2]?
Answer: Its value is 1 (16.7) n (%).

Question: And the “TEAE Moderate” value [2]?
Answer: The value was 1 (16.7) n (%).

Question: And the “TEAE Severe” value [2]?
Answer: The value was 0 n (%).

Question: And the “Any TEAE” value (Part B - RWD, study drug group, N = 6, listed as study drug)?
Answer: Its value is 1 n (%).

Question: What about the “Any TEAE” value (Part B, 20 mg, N = 17) of the same compound?
Answer: Its value is 10 n (%).

Question: What about the “PT Cognitive disorder” value (Part B, 20 mg, N = 17) of the same compound?
Answer: The value was 2 n (%).

Question: And the “PT Constipation” value (Part B, 20 mg, N = 17)?
Answer: The value was 1 n (%).

Question: And the “PT Dizziness” value (Part B, 20 mg, N = 17)?
Answer: Its value is 4 n (%).

Question: And the “PT Fatigue” value (Part B, 20 mg, N = 17)?
Answer: The value was 2 n (%).

Question: What about the “PT Insomnia” value (Part B, 20 mg, N = 17) of the same compound?
Answer: The value was 1 n (%).

Question: And the “SOC Gastrointestinal Disorders” value (Part B, 20 mg, N = 17)?
Answer: Its value is 3 n (%).

Question: And the “SOC General Disorders and Administration Site Conditions” value (Part B, 20 mg, N = 17)?
Answer: The value was 2 n (%).

Question: What about the “SOC Musculoskeletal and Connective Tissue Disorders” value (Part B, 20 mg, N = 17) of the same compound?
Answer: Its value is 1 n (%).

Question: And the “SOC Nervous System Disorders” value (Part B, 20 mg, N = 17)?
Answer: Its value is 8 n (%).

Question: What about the “SOC Psychiatric Disorders” value (Part B, 20 mg, N = 17) of the same compound?
Answer: The value was 1 n (%).

Question: And the “SOC Vascular Disorders” value (Part B, 20 mg, N = 17)?
Answer: The value was 0 n (%).

Question: What about the “Any TEAE” value (Part B, 40 mg, N = 15) of the same compound?
Answer: Its value is 8 n (%).

Question: What about the “PT Cognitive disorder” value (Part B, 40 mg, N = 15) of the same compound?
Answer: Its value is 1 n (%).

Question: What about the “PT Constipation” value (Part B, 40 mg, N = 15) of the same compound?
Answer: Its value is 3 n (%).

Question: And the “PT Dizziness” value (Part B, 40 mg, N = 15)?
Answer: The value was 1 n (%).

Question: What about the “PT Fatigue” value (Part B, 40 mg, N = 15) of the same compound?
Answer: Its value is 1 n (%).

Question: And the “PT Insomnia” value (Part B, 40 mg, N = 15)?
Answer: Its value is 2 n (%).

Question: What about the “SOC Gastrointestinal Disorders” value (Part B, 40 mg, N = 15) of the same compound?
Answer: The value was 3 n (%).

Question: And the “SOC General Disorders and Administration Site Conditions” value (Part B, 40 mg, N = 15)?
Answer: Its value is 2 n (%).

Question: And the “SOC Musculoskeletal and Connective Tissue Disorders” value (Part B, 40 mg, N = 15)?
Answer: Its value is 0 n (%).
